Reference: PubChem BioAssay AID2060621 (Molecular Pharmacology Branch, DTP, NCI, 2025)
Where “and” joins values, the source holds several entries; their conditions need not be identical. Identical values can stand only once. Blank lines part the entries; values can stand above or below the molecule they belong to.

Test system: 324938-238-R-J1-PDC complex spheroids viability
Experiment: Anticancer human tumor 324938-238-R-J1-PDC patient-derived bladder carcinoma cell line growth inhibition [CLK]
Settings: for viability, T/C: stronger effect = lower value
Description: A high-throughput screen of multi-cell type tumor spheroids was designed to identify active combinations of […] and targeted small molecules. Complex spheroids include a stromal component modeled by human endothelial cells (HUVEC) and fibroblasts modeled by human mesenchymal stem cells (MSCs). The concentration ranges selected for each drug and investigational agent were based upon clinically achievable concentrations if the clinical Cmax of the agent was known.
Compounds. The drugs and investigational agents: cirtuvivint (SM08502; NSC835563), CC-671 (NSC850746), vemurafenib (NSC761431), tapotoclax (NSC804041), sotorasib (NSC818433), adagrasib (NSC831453), MRTX-1133 (NSC836407), BAY2416964 (NSC825713), copanlisib (NSC816437), inavolisib (NSC800729), abemaciclib (NSC768073), osimertinib (NSC779217), entinostat (NSC756642), eltanexor (KPT-8602, NSC794443), venetoclax (NSC766270), ceralasertib (NSC777638), bortezomib (NSC756655), olaparib (NSC753686), talazoparib (NSC767125), alisertib (NSC759677), peposertib (NSC802822), gemcitabine (NSC613327), 5-fluorouracil (NSC19893), SN-38 (NSC673596), oxaliplatin (NSC266046), paclitaxel (NSC125973), and doxorubicin (NSC123127), were obtained from the National Cancer Institute (NCI) Developmental Therapeutics Program Chemical Repository. The FDA-approved anticancer drug set is available from the Developmental Therapeutics Program at https://dtp.cancer.gov/organization/dscb/obtaining/available plates.htm. […] The stock solutions were prepared in dimethyl sulfoxide (DMSO, Sigma-Aldrich, St. Louis, MO, cat. D2650), except for the platinum complexes which were prepared in saline (Quality Biological, Gaithersburg, MD, cat. 114-055-101), at 800-fold the tested concentration and stored at -70 degrees C prior to their use. All drugs and investigational agents were tested over a range starting from a high concentration at or near the clinical Cmax and decreasing in half-log increments. If the clinical Cmax for an agent had not been determined, the highest concentration tested was 10 microM.
Cell Culture. All cells were maintained in an incubator at 37 degrees C and 5% CO2 with 95% humidity. The PDC lines were cultured according to standard operating procedures established by the NCI PDMR. Briefly, all PDCs were thawed and cultured in Matrigel-coated flasks prepared with a working solution of 1X Ham's F-12 nutrient mix, without supplementation (Invitrogen, Waltham, MA, cat. 11765054), 100 U/mL penicillin-streptomycin (Invitrogen, cat. 15140122), and 2.5% Matrigel (Corning Inc., Corning, NY, cat. 354248) for the first three passages. The 947758-054-R-J2-PDC line was cultured in 6B/Colon 1A media, which includes advanced DMEM/F-12 (Thermo Fisher Scientific, cat. 12634028), 10 mM HEPES (Thermo Fisher Scientific, cat. 15630080), 1X GlutaMAX supplement (Thermo Fisher Scientific, cat. 35050061), 0.1 mg/mL primocin (InvivoGen, cat. ant-pm-2), 10% defined fetal bovine serum, heat inactivated (HyClone Laboratories Inc., cat. SH30070.03HI), 1.25 mM N-Acetyl-L-cysteine (Sigma-Aldrich, cat. A9165), 10 mM nicotinamide (Sigma-Aldrich, cat. N0636), 1X B-27 supplement (Thermo Fisher Scientific, cat. 17504044), 1X N-2 supplement (Thermo Fisher Scientific, cat. 17502048), and 10 microM Y-27632 dihydrochloride (Tocris Bioscience, cat. 1254). The 876862-298-R-J1-PDC was cultured in 6E media, which includes all 6B/Colon 1A media components plus 50% L-WRN conditioned media (ATCC, cat. CRL-3276), 50 ng/mL recombinant human EGF recombinant protein (hEGF; Thermo Fisher Scientific, cat. PHG0311), 10 ng/mL recombinant human fibroblast growth factor 10 (hGFG-10; PeproTech, cat. 100-26), 1 ng/mL recombinant human fibroblast growth factor 2 (hFGF-2; PeproTech, cat. 100-18B), and 1 µM prostaglandin E2 (PGE2; Tocris, cat. 2296). The 227483-062-R1-J1-PDC line was cultured in Panc media, containing all 6E components except hFGF-2, with the addition of 500 nM SB-431542 (Selleckchem, cat. S1067) and 10 nM gastrin (Tocris, cat. 3006). […]

[1] = curve of first compound, second compound 0.0316 µM
[2] = curve of first compound, second compound 0.1 µM
[3] = curve of first compound, second compound 0.316 µM
[4] = curve of first compound, second compound 1 µM
[5] = curve of first compound, second compound 3.16 µM
[6] = curve of first compound, second compound 10 µM
[7] = second compound 0.0316 µM, first compound 0.0316 µM
[8] = second compound 0.0316 µM, first compound 0.1 µM
[9] = second compound 0.0316 µM, first compound 0.316 µM
[10] = second compound 0.0316 µM, first compound 1 µM
[11] = second compound 0.0316 µM, first compound 3.16 µM
[12] = second compound 0.0316 µM, first compound 10 µM
[13] = second compound 0.1 µM, first compound 0.0316 µM
[14] = second compound 0.1 µM, first compound 0.1 µM
[15] = second compound 0.1 µM, first compound 0.316 µM
[16] = second compound 0.1 µM, first compound 1 µM
[17] = second compound 0.1 µM, first compound 3.16 µM
[18] = second compound 0.1 µM, first compound 10 µM
[19] = second compound 0.316 µM, first compound 0.0316 µM
[20] = second compound 0.316 µM, first compound 0.1 µM
[21] = second compound 0.316 µM, first compound 0.316 µM
[22] = second compound 0.316 µM, first compound 1 µM
[23] = second compound 0.316 µM, first compound 3.16 µM
[24] = second compound 0.316 µM, first compound 10 µM
[25] = second compound 1 µM, first compound 0.0316 µM
[26] = second compound 1 µM, first compound 0.1 µM
[27] = second compound 1 µM, first compound 0.316 µM
[28] = second compound 1 µM, first compound 1 µM
[29] = second compound 1 µM, first compound 3.16 µM
[30] = second compound 1 µM, first compound 10 µM
[31] = second compound 3.16 µM, first compound 0.0316 µM
[32] = second compound 3.16 µM, first compound 0.1 µM
[33] = second compound 3.16 µM, first compound 0.316 µM
[34] = second compound 3.16 µM, first compound 1 µM
[35] = second compound 3.16 µM, first compound 3.16 µM
[36] = second compound 3.16 µM, first compound 10 µM
[37] = second compound 10 µM, first compound 0.0316 µM
[38] = second compound 10 µM, first compound 0.1 µM
[39] = second compound 10 µM, first compound 0.316 µM
[40] = second compound 10 µM, first compound 1 µM
[41] = second compound 10 µM, first compound 3.16 µM
[42] = second compound 10 µM, first compound 10 µM
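Also: viability read after seven days of drug exposure.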
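For viability, T/C in this document: 100% = DMSO vehicle control wells.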

IC50 (compound alone, run of 08/14/2023): 116 nM [middle of 10 runs]
SMILES: CN1CCN(c2cc(C(=O)Nc3cc4cc(-c5cnn(C)c5)ccc4cn3)ccn2)CC1
viability, T/C (compound 0.0316 µM): 80.8% [middle of 12 runs]
viability, T/C (compound 0.1 µM): 54.8% [middle of 12 runs]
viability, T/C (compound 0.316 µM): 22.3% [middle of 12 runs]
viability, T/C (compound 1 µM): 1.3% [middle of 12 runs]
viability, T/C (compound 3.16 µM): 0.22% [middle of 5 runs]
viability, T/C (compound 10 µM): 0.22% [middle of 10 runs]

IC50 [1]: < 31.6 nM
IC50 [2]: < 31.6 nM
IC50 [3]: < 31.6 nM
IC50 [4]: < 31.6 nM
IC50 [5]: < 31.6 nM
IC50 [6]: < 31.6 nM
SMILES: COc1cccc2c1C(=O)c1c(O)c3c(c(O)c1C2=O)CC(O)(C(=O)CO)CC3OC1CC(N)C(O)C(C)O1 (configuration not stated) + CNC(=O)c1ccc(Nc2nc(OC3CCCC3)c3c(-c4ccc5nc(C)oc5c4)c[nH]c3n2)c(OC)c1
viability, T/C [7]: 19.3%
viability, T/C [8]: 16.8%
viability, T/C [9]: 9.74%
viability, T/C [10]: 0.7%
viability, T/C [11]: 0.12%
viability, T/C [12]: 0.14%
viability, T/C [13]: 18.5%
viability, T/C [14]: 20.2%
viability, T/C [15]: 9.65%
viability, T/C [16]: 0.48%
viability, T/C [17]: 0.11%
viability, T/C [18]: 0.15%
viability, T/C [19]: 19.1%
viability, T/C [20]: 16.3%
viability, T/C [21]: 9.12%
viability, T/C [22]: 0.49%
viability, T/C [23]: 0.16%
viability, T/C [24]: 0.13%
viability, T/C [25]: 17.2%
viability, T/C [26]: 11.7%
viability, T/C [27]: 7.13%
viability, T/C [28]: 0.58%
viability, T/C [29]: 0.14%
viability, T/C [30]: 0.15%
viability, T/C [31]: 20.2%
viability, T/C [32]: 12.2%
viability, T/C [33]: 6.62%
viability, T/C [34]: 0.36%
viability, T/C [35]: 0.14%
viability, T/C [36]: 0.16%
viability, T/C [37]: 18.3%
viability, T/C [38]: 13.4%
viability, T/C [39]: 5.95%
viability, T/C [40]: 0.31%
viability, T/C [41]: 0.19%
viability, T/C [42]: 0.23%

IC50 (curve of compound): > 10000 nM and 8670 nM
SMILES: CCCS(=O)(=O)Nc1ccc(F)c(C(=O)c2c[nH]c3ncc(-c4ccc(Cl)cc4)cc23)c1F
viability, T/C (compound 0.0316 µM): 80.8% and 83%
viability, T/C (compound 0.1 µM): 96.9% and 88.4%
viability, T/C (compound 0.316 µM): 102% and 90.1%
viability, T/C (compound 1 µM): 115% and 101%
viability, T/C (compound 3.16 µM): 111% and 94.9%
viability, T/C (compound 10 µM): 55% and 44.1%

SMILES: Nc1ccccc1NC(=O)c1ccc(CNC(=O)OCc2cccnc2)cc1 + CN1CCN(c2cc(C(=O)Nc3cc4cc(-c5cnn(C)c5)ccc4cn3)ccn2)CC1
IC50 [1]: 1200 nM
IC50 [2]: 173 nM
IC50 [3]: < 31.6 nM
IC50 [4]: < 31.6 nM
IC50 [5]: < 31.6 nM
IC50 [6]: < 31.6 nM
viability, T/C [7]: 80.2%
viability, T/C [8]: 88.1%
viability, T/C [9]: 70.5%
viability, T/C [10]: 52.5%
viability, T/C [11]: 32.2%
viability, T/C [12]: 14.2%
viability, T/C [13]: 58.5%
viability, T/C [14]: 50%
viability, T/C [15]: 44.8%
viability, T/C [16]: 39.6%
viability, T/C [17]: 30.6%
viability, T/C [18]: 7.44%
viability, T/C [19]: 21.6%
viability, T/C [20]: 26%
viability, T/C [21]: 20.6%
viability, T/C [22]: 21.1%
viability, T/C [23]: 24.1%
viability, T/C [24]: 0.19%
viability, T/C [25]: 1.99%
viability, T/C [26]: 3.65%
viability, T/C [27]: 4%
viability, T/C [28]: 2.6%
viability, T/C [29]: 0.16%
viability, T/C [30]: 0.13%
viability, T/C [31]: 0.13%
viability, T/C [32]: 0.14%
viability, T/C [33]: 0.15%
viability, T/C [34]: 0.1%
viability, T/C [35]: 0.1%
viability, T/C [36]: 0.16%
viability, T/C [37]: 0.06%
viability, T/C [38]: 0.13%
viability, T/C [39]: 0.14%
viability, T/C [40]: 0.13%
viability, T/C [41]: 0.18%
viability, T/C [42]: 0.2%

IC50 (curve of compound): 8810 nM and 4580 nM
SMILES: CC1(C)CCC(CN2CCN(c3ccc(C(=O)NS(=O)(=O)c4ccc(NCC5CCOCC5)c([N+](=O)[O-])c4)c(Oc4cnc5[nH]ccc5c4)c3)CC2)=C(c2ccc(Cl)cc2)C1
viability, T/C (compound 0.0316 µM): 85.9% and 77.8%
viability, T/C (compound 0.1 µM): 79.9% and 82.2%
viability, T/C (compound 0.316 µM): 84.2% and 75.7%
viability, T/C (compound 1 µM): 82% and 77.7%
viability, T/C (compound 3.16 µM): 77.1% and 68.8%
viability, T/C (compound 10 µM): 46.6% and 10.4%

IC50 (curve of compound): 59.4 nM and 60.2 nM
SMILES: CCN1CCN(Cc2ccc(Nc3ncc(F)c(-c4cc(F)c5nc(C)n(C(C)C)c5c4)n3)nc2)CC1
viability, T/C (compound 0.00316 µM): 74.7% and 81.3%
viability, T/C (compound 0.01 µM): 69.6% and 74.1%
viability, T/C (compound 0.0316 µM): 60% and 54.8%
viability, T/C (compound 0.1 µM): 41.8% and 48.6%
viability, T/C (compound 0.316 µM): 37% and 36.6%
viability, T/C (compound 1 µM): 36.5% and 46.5%
